Legend:
[1] = healthy subjects; cited from earlier work
[2] = test system: mouse model of (POCD); experiment: Fear conditioning context testing in laparotomy mouse model of POCD; type: in vivo, Male C57BI/6 mice
Text: (§1) To induce POCD, mice were anesthetized with isoflurane and maintained at a surgical plane of anesthesia (2-2.5%). The abdomen was shaved and cleaned/disinfected with both betadine and ethanol (70%). A 1.5 cm vertical incision was made along the midline of the abdomen, perforating the skin and the peritoneal cavity. A sterile blunt probe was inserted into the cavity, and the abdominal viscera and musculature were manipulated for five minutes. Abdominal muscles and skin were sutured, polysporin and topical lidocaine were applied to the incision site, and buprenorphine (0.1 mg/kg s.c.) was administered. Animals were placed into a clean, pre-warmed home cage for recovery and housed singly thereafter.
Fear conditioning is a commonly used test of associative learning where a […] stimulus is paired with an aversive unconditioned stimulus, resulting in a freezing response that can be subsequently quantified. Training occurred on the day prior to surgery, context testing on PSD1 (i.e., 2 days after training) and PSD3 (i.e., 4 days after training), and cued testing on PSD3 at a time point three hours after the final context test. For training and context testing, mice were placed in an operant chamber (Med Associates). For cued testing, mice were placed into a novel arena with novel external environment and scent.
Fear conditioning training was performed to generate an association between a neutral “conditional” stimulus (80 dB tone) with an aversive “unconditional” stimulus (0.4 mA shock). Before training, the system was tested to confirm proper operation of the shock and tone. During training, the testing environment was kept quiet and well controlled. Temperature and humidity levels were kept constant and the experimenter was not visible from the operant chamber, which was cleaned between animals. The training protocol was as follows: 1. Each mouse was habituated to the testing room for 20 minutes. 2. Video recording was initiated and the animal's ID card was recorded. 3. Each mouse was placed into the operant chamber and the training protocol was implemented as follows: a. 120 seconds; no stimuli (habituation to the chamber); b. 20 seconds, tone presentation (80 dB); c. 20 seconds, no stimuli (trace delay period); d. 2 seconds, foot shock (0.4 mA); e. 90 seconds, no stimuli (intertrial interval); f. repeat steps a-d followed by a final 30 second no stimuli period. 4. The mouse was returned to its home cage.
The purpose of context testing is to evaluate context memory for an aversive environment. Materials for this process included the operant testing chamber, a video recorder, a stopwatch, and data recording sheets. During the testing process the testing environment was kept quiet and well controlled with constant temperature and humidity levels. It was ensured that the experimenter was not visible from the operant chamber. The chamber was cleaned between animals.
Context testing was performed as follows: 1. The mouse was habituated to the testing room for 15 minutes. 2. Video recording was initiated and the animal's ID card recorded. 3. The mouse was placed in the operation chamber and allow ed 270 seconds exploration time. 4. The mouse was returned to its home cage.
Fear conditioning context testing was performed on PSD1 and PSD3, with exposure to the contextual environment presented at the equivalent time of day to the training period in the same arena as was used for training. On PSD3, following the final contextual testing, the cued testing phase was performed. […]

[3] = test system: mouse model of (POCD); experiment: Novel object recognition testing in laparotomy mouse model of POCD; type: in vivo, Male C57BI/6 mice; details: for novel object preference, 24-hour (long term) testing: PSD6
Text: as §1
Novel object recognition (NOR) is a tool used to assess the ability of mice to differentiate between familiar and novel objects (i.e., recognition memory). The paradigm relies on the tendency of rodents to interact more with a novel object than a familiar one. In this task, acclimation to the test arena was provided on the day prior to training (PSD4) and the initial test trial (short-term recall), presented one hour following training on PSD5. The second test trial (long-term recall) was performed 24 hours later (PSD6). Object recognition may be determined through evaluation of the percent time spent exploring a novel object relative to the total time spent exploring both novel and familiar objects; normal animals will spend more time exploring a novel object. If the exploration of both objects is the same, this behavior can be a sign of a recognition memory deficit.
(§2) The acclimation process was as follows: 1. The animal was brought into the testing room in a transfer cage. 2. Video recording was begun and the animal's ID card was recorded. 3. The mouse was placed in the center of the arena and allowed to explore freely for 5 minutes. 4. The mouse was returned to its home cage.
as §2, with “paired object training” for “acclimation”, “10” for “5”
(§3) The novel object (1 hour) test was performed as follows: 1. The arena was prepared with one original object (block) and one novel object (ball) present. 2. The animal was brought into the testing room in a transfer cage. 3. Video recording was begun and the animal's ID card was recorded. 4. The mouse was placed in the center of the arena and allowed to explore for 10 minutes. 5. The mouse was returned to its home cage.
as §3, with “(24” for “(1”, “(dome)” for “(ball)”

Cc1ccc(=O)n(-c2ccccc2)c1 [pirfenidone, 5-methyl-1-phenyl-2-(1H)-pyridone]
mean terminal half-life [1]: approximately 3 hours | time spent freezing, contextual test, within-group PSD3 compared to PSD1 ([2]; Acute (400 mg/kg p.o. single presurgical dose), p=0.009, paired t-test): less time freezing | time spent freezing, contextual test, within-group PSD3 compared to PSD1 ([2]; Chronic (400 mg/kg initial; 200 mg/kg p.o. 1x/day), p=0.942, paired t-test): no difference between test presentation days | time spent freezing, contextual test ([2]; PSD1, Acute (400 mg/kg p.o. single presurgical dose) compared to Chronic pirfenidone animals, p=0.027, LSD post-hoc): increased freezing | time spent freezing, contextual test ([2]; PSD3, Acute (400 mg/kg p.o. single presurgical dose) vs Normal Controls): performed equivalently to Normal Controls | time spent freezing, contextual test, between groups ([2]; PSD3, Acute and Chronic groups and controls, p=0.671, One-way ANOVA): no statistical difference between groups | preference index, within-group 1-hour vs 24-hour ([3]; Acute, p=0.762, paired t-test (statistically equivalent)): retained memory for the familiar object | preference index, within-group 1-hour vs 24-hour ([3]; Chronic, p=0.828, paired t-test (statistically equivalent)): retained memory for the familiar object | total object exploration time, 1 hour test compared with training ([3]; PSD5, Acute, p=0.01, within group paired t-test): decrease in total time spent interacting with objects | total object exploration time, 1 hour test compared with training ([3]; PSD5, Chronic, p=0.04, within group paired t-test): decrease in total time spent interacting with objects | novel object preference, 1-hour (short term) testing, between groups ([3]; PSD5, all treatment groups, p=0.376, one-way ANOVA): no main effect for treatment | novel object preference, 24-hour (long term) testing ([3]; Acute vs Disease Controls, p=0.08, LSD post-hoc): trend toward increased preference | novel object preference, 24-hour (long term) testing ([3]; Chronic vs Disease Controls, p=0.09, LSD post-hoc): trend toward increased preference

Reference: patent US20240299698A1, “PREVENTION AND TREATMENT OF POST-OPERATIVE COGNITIVE DYSFUNCTION (POCD)” (Noetix Pharma LLC, priority 2022, published 2024)
